# Assay results taken from US20160279187A1, “CALPAIN INHIBITORS FOR IBD AND COLORECTAL CANCER TREATMENT” (UNIVERSITY OF HAWAII, priority 2013, published 2016).
# Where a SMILES comes first, the peptide text is derived from it. The star is where a group is joined. Cbz = O=C(OCc1ccccc1)*; CH2F = FC*
# Columns and labels:
# [1] = tested on: cytokine mRNAs in colon tissues; experiment: AOM/DSS model, colon cytokine mRNA by real-time PCR; type: in vivo, mice; details: day 63, vs vehicle control
# Procedure: Mice subjected to the AOM/DSS model were sacrificed on day 63 and colons removed and assessed by histology and cytokine mRNA analyses. […] To further assess inflammation, mouse colon tissues were harvested at the end of the chronic colitis model and mRNA levels for different cytokines measured by real-time PCR.
# To determine if a similar mechanism may be contributing to the effect of the calpain-2 inhibition in the DSS model of colitis, macrophages were analyzed for NFκB activation and inflammatory cytokine secretion. Bone marrow derived macrophages were primed […] with TNFα (20 ng/ml) and activated with E. faecalis (1 μg/ml) for 1 h in the presence or absence of calpain-2 inhibitor (20 μg/ml). Supernatants were evaluated for a panel of cytokines including IFNγ, TNFα, IL-6, and MCP-1, IL-10, and IL-12. Real-time PCR was performed on total RNA extracted from colon tissues to access levels of cytokines. Media was collected from wells and cytokines assessed by CBA kit (BD Biosciences). For IκB blotting cells were lysed and SDS-PAGE was performed. Membranes were stained with anti-IκB (Cell Signalling) and anti-βactin (Santa Cruz). For NfκB blotting an NFκB Activation Kit (Five Photon) was used to isolate nuclear fractions. These fractions were transferred using SDS-PAGE. The membranes were stained with anti-NFκB (Santa Cruz) or anti-TATA (Abcam). Data are mean±SE (n=3) and represent results from three independent experiments. *p<0.05; one way ANOVA followed by Tukey post-test. […] Importantly, those cytokines most affected by the calpain-2 are regulated by NFκB.
# [2] = target: T1, m-calpain (Homo sapiens, UniProt P17655); experiment: irreversible inhibition of m-calpain, k2 rate constant; type: biochemical; details: m-calpain / cathespin L, 28,900/680,000
# T1 sequence (P17655 1-700): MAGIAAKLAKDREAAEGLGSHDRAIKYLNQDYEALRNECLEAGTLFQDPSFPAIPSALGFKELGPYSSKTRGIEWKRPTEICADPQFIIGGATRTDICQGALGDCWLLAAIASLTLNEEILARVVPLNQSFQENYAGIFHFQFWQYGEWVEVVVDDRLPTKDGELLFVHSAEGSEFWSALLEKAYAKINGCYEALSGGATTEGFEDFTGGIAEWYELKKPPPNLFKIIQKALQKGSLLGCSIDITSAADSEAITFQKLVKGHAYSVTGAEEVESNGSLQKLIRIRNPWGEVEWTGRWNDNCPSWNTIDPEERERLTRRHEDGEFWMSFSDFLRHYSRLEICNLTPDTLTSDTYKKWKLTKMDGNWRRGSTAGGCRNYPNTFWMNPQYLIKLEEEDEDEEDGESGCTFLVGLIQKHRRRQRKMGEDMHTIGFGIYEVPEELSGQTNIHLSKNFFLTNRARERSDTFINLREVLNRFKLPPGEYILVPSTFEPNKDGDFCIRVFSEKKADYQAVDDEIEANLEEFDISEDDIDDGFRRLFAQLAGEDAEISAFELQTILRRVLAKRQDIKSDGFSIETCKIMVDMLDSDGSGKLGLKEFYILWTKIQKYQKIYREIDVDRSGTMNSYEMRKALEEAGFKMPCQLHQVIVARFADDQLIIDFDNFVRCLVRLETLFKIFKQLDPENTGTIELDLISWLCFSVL
# T1 sequence (P04632 1-268 partner): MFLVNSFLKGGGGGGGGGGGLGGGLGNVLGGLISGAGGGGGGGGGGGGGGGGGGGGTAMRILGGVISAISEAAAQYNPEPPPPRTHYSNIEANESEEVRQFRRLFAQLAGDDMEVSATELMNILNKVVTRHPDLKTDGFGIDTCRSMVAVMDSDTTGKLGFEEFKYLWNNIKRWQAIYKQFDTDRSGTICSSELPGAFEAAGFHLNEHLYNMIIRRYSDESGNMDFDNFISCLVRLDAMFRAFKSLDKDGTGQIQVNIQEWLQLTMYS
# Source text: In some aspects, the m-calpain selective inhibitor can be an irreversible inhibitor of m-calpain. The inhibition is made […] by the nucleophilic attack of the active cysteine in m-calpain to the electrophilic moeity of the m-calpain selective inhibitor to form a covalent bond (Moldoveanu, T.; Campbell, R. L.; Cuerrier, D.; Davies, P. L. J. Mol. Biol., 343, 1313-1326, 2004; Carragher, N. O., Curr. Pharm. Des., 12, 615-638, 2006). […] However, ZZ-LLY-CH2F can inhibit the off-target protein cathespin L with a rate constant k2 of 680,000 M^−1s^−1 (Li, Q.; Hanzlik, R. P.; Weaver, R. F.; Schoenbrunn, E., Biochemistry, 45:701-708, 2006). Thus, the ratio of inhibition rates k2 of the on-target m-calpain to an off-target protein can be around 28,900/680,000, or about 0.041. The ratio of inhibition rates k2 of the on-target m-calpain to an off-target protein can be greater than about 0.5, or greater than 0.1, or greater than 0.05, or greater than 0.01.
# [3] = target: T1, m-calpain; details: on-target; cited from earlier work
structure (smiles),measurement,setting,value
"CC(C)C[C@H](NC(=O)OCc1ccccc1)C(=O)N[C@@H](CC(C)C)C(=O)N[C@@H](Cc1ccc(O)cc1)C(=O)CF [zLLY-CH2F, Z-LLY-CH2F] (Cbz-Leu-Leu-Tyr-CH2F)",IFNγ mRNA level in colon,[1],not significantly different
same,IL-6 mRNA level in colon,[1],lowered
same,MCP-1 mRNA level in colon,[1],lowered
same,TNFα mRNA level in colon,[1],lowered
same,ratio of inhibition rates k2 of on-target m-calpain to off-target protein,[2],about 0.041
same,"k2 rate constant, irreversible inhibition of m-calpain",[3],"about 28,900 M-1 s-1"
